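Following 48 hours of exposure in 96-well plates, responses at five concentrations were used to interpolate endpoints linearly. TGI denotes the concentration required for complete inhibition of growth.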 Where a SMILES comes first, the peptide text is derived from it.
Tests used:
Assay in all cases: NCI-60 cell line screen, 48 h
SF-268 CNS = system: SF-268 CNS
NCI-H522 lung = system: NCI-H522 lung
SF-539 CNS = system: SF-539 CNS
MDA-N = system: MDA-N
786-0 renal = system: 786-0 renal
HS 578T breast = system: HS 578T breast
OVCAR-8 ovarian = system: OVCAR-8 ovarian
RPMI-8226 leukemia = system: RPMI-8226 leukemia
NCI-H226 lung = system: NCI-H226 lung
HT29 colon = system: HT29 colon
OVCAR-5 ovarian = system: OVCAR-5 ovarian

Row | Structure (SMILES) | TGI (SF-268 CNS) [µM] | TGI (NCI-H522 lung) [µM] | TGI (SF-539 CNS) [µM] | TGI (MDA-N) [µM] | TGI (786-0 renal) [µM] | TGI (HS 578T breast) [µM] | TGI (OVCAR-8 ovarian) [µM] | TGI (RPMI-8226 leukemia) [µM] | TGI (NCI-H226 lung) [µM] | TGI (HT29 colon) [µM] | TGI (OVCAR-5 ovarian) [µM]
1 | CCc1cc2c(cc1C(=O)CCC(=O)O)CC1(C2)Cc2cc(CC)c(C(=O)CCC(=O)O)cc2C1 | > 100 | > 100 | > 100 | > 100 | > 100 | > 100 | > 100 | > 100 | > 100 | > 100 | > 100
2 | CCOC(=O)C1=NN(c2ccc(C)cc2)C2(c3ccccc3)C=C(c3ccccc3)N(C)CCN12 (centres undefined) | > 100 | > 100 | > 100 | > 100 | > 100 | > 100 | > 100 | > 100 | > 100 | > 100 | > 100
3 | CCN(CC)CCOCCOCC1(c2ccc(Cl)c(Cl)c2)CCCCC1 | 25.3 | 22.1 | 24.8 | 13.8 | 9.07 | 13.8 | 28.8 | 6.45 | 35.1 | 7.53 | 24
4 | CCCC(=O)Nc1cc(/C=C/C(=O)N2CC(CCl)c3ccc([N+](=O)[O-])cc32)n(C)c1 (centres undefined) | > 100 | > 100 | > 100 | > 100 | > 100 | > 100 | > 100 | > 100 | > 100 | > 100 | > 100
5 | CC(=O)NC(CS)C(=O)NC(CO)C(=O)NC(CO)C(=O)NC(Cc1c[nH]c2ccccc12)C(=O)N1CCCC1C(=O)NC(CO)C(=O)NC(Cc1c[nH]c2ccccc12)C(=O)NC(Cc1c[nH]cn1)C(=O)NC(CO)C(=O)NC(Cc1c[nH]c2ccccc12)C(=O)NCC(=O)NCC(=O)NC(C)C(=O)NC(CCC(N)=O)C(=O)NC(CCCCN)C(=O)NC(C)C(=O)NC(CCCNC(=N)N)C(=O)NC(CCCCN)C(N)=O (centres undefined) (Ac-CSSWPSWHSWGGAQKARK-NH2; configuration not given here) | 49.6 | > 50 | > 50 | > 50 | 19.5 | > 50 | > 50 | > 50 | > 50 | > 50 | > 50
6 | N#CC12CC(C=O)=C(N)C1(C#N)CC(C=O)=C2N (centres undefined) | > 100 | > 100 | > 100 | > 100 | > 100 | > 100 | > 100 | > 100 | > 100 | > 100 | > 100
7 | C=CC(=C)CCC(Br)C(C)(C)Br (centres undefined) | > 100 | 30.6 | > 100 | > 100 | > 100 | > 100 | > 100 | > 100 | > 100 | > 100 | > 100
8 | Cc1ccc(F)c2[nH]c(-c3ccccc3)cc(=O)c12 | > 67 | 38.1 | 28.5 | > 100 | > 43.4 | > 100 | > 100 | > 100 | > 100 | > 100 | > 31.3
9 | O=S(=O)(O)c1ccc(N=Nc2ccc(N=Nc3c(O)ccc4ccc(S(=O)(=O)O)cc34)cc2)cc1 | > 100 | > 100 | > 100 | > 100 | > 100 | > 100 | > 100 | > 100 | > 100 | > 100 | > 100
10 | COC(=O)c1ccc(Oc2nc3ccc(C(F)(F)F)cc3nc2-c2ccccc2)cc1 | > 100 | > 100 | > 100 | > 100 | > 100 | > 100 | > 100 | > 100 | > 100 | > 100 | > 100
11 | COc1cc(/C=C2\N=C(c3ccccc3)N(c3nc4ccccc4s3)C2=O)cc(OC)c1OC | > 100 | 35.8 | > 100 | 54.4 | 69.3 | > 100 | > 100 | 16.7 | > 100 | > 100 | > 100
12 | Cc1cc(-c2nc3ccc(F)cc3s2)ccc1NC(=O)C(N)CCCCN (centres undefined) | 19 | 17.3 | 7.75 | 5 | 8.76 | 27.1 | 22.3 | 12.5 | 24 | 13.1 | 22.5
13 | COc1ccc2nc(N/N=C/c3ccc(C)s3)cc(C)c2c1 | 54.7 | > 100 | 34.8 | 38.2 | 42.6 | 55.2 | 55.7 | 37.3 | 41 | 25.7 | 32.6
14 | C[C@H](CCC(=O)O)[C@H]1CC[C@H]2[C@@H]3[C@H](O)[C@H](O)[C@@H]4C[C@H](O)CC[C@]4(C)[C@H]3CC[C@]12C | > 100 | > 100 | > 100 | > 100 | > 100 | > 100 | > 100 | > 100 | > 100 | > 100 | > 100
15 | CC1(C)C(CBr)=[N+]([O-])C(C)(C)N1O | > 10 | 3.22 | > 7.83 | > 10 | 9.78 | > 10 | > 10 | > 8.63 | > 10 | > 10 | > 10
16 | O=C1/C(=C/c2ccc([N+](=O)[O-])cc2)CCCc2ccccc21 | > 100 | > 100 | > 100 | > 100 | > 100 | 75.9 | > 100 | > 100 | > 100 | > 100 | > 100
17 | CCOP(=O)(OCC)/C(=C\n1ccc(=O)[nH]c1=S)C(=O)OC | > 100 | > 100 | > 100 | > 100 | > 100 | > 100 | > 100 | > 100 | > 100 | > 100 | > 100
18 | CCOC(=O)C(=CNc1ccc(S(N)(=O)=O)cc1)C(=O)OCC | > 100 | > 100 | > 100 | > 100 | > 100 | > 100 | > 100 | > 100 | > 100 | > 100 | > 100
19 | CC(C)(C)c1ccc(NS(=O)(=O)c2ccc(N)cc2)cc1 | 78.2 | 38.7 | 41.7 | 54.7 | 52.1 | 59.3 | 68.5 | 30.6 | 45.8 | 35.3 | 84.3

Reference: PubChem BioAssay (NCI)
